Consider one compound from PMC6133773 (The Journal of organic chemistry, 2018).

The target in assay [1] is T1, IspD (Plasmodium falciparum, UniProt Q8I273).
T1 sequence (Q8I273 60-734): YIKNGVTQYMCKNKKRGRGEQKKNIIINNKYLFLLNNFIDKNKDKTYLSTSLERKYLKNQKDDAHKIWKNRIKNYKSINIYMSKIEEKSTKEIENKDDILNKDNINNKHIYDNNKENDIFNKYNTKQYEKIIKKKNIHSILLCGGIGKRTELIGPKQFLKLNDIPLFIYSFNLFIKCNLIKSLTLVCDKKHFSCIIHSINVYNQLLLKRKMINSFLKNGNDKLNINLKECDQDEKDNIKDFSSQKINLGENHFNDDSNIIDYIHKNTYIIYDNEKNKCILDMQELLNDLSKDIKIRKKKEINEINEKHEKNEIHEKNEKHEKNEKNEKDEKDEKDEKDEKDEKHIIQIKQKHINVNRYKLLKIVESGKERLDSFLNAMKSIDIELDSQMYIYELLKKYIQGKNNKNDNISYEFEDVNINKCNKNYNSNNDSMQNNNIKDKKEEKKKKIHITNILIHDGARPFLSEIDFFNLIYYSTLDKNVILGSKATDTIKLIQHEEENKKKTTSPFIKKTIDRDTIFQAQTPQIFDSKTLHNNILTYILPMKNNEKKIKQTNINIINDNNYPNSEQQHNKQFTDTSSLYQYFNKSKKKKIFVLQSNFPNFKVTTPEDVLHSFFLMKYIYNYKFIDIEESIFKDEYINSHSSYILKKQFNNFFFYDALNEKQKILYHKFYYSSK
Nature of the assay: MESG coupled pyrophosphate assay, inhibition of MEP turnover. Format: biochemical.

Assay [2] addresses T2, IspD (Escherichia coli, UniProt Q46893).
T2 sequence (Q46893 2-236): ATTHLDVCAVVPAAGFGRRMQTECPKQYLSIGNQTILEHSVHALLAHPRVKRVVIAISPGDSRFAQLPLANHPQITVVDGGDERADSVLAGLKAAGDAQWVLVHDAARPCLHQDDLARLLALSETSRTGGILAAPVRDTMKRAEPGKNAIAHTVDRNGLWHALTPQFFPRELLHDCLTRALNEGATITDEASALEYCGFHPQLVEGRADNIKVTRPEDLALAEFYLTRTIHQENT
Described as above. Format: biochemical.

A word on the IC50: it is the midpoint of a concentration-inhibition curve.

`C[C@](O)(CO)[C@H](O)C[C@@H](F)P(=O)(O)O` [5b, (5S)-D-methylerythritol monofluoromethyl phosphonate]: the half-maximal inhibitory concentration (IC50) is 1300 ± 700 µM against IspD [1] and 700 ± 100 µM against IspD [2].
